Test results as given in patent publication US10072014B2 (Janssen Pharmaceutica NV, priority 2014, dated 2018).
Read-outs that look alike come from different tables or passages of the source.

Tests used:
human mGlu2 receptor = molecular target: T1, human mGlu2 receptor (Homo sapiens, UniProt Q14416); experiment: [35S]GTPγS binding assay, negative allosteric modulation of mGluR2; format: biochemical
T1 construct: expressed in transfected cells; host or cells: CHO cells
From the text: The compounds provided in the present invention are negative allosteric modulators of mGluR2. These compounds appear to inhibit glutamate responses by binding to an allosteric site other than the glutamate binding site. The response of mGluR2 to a concentration of glutamate is decreased when compounds of Formula (I) are present. Compounds of Formula (I) are expected to have their effect substantially at mGluR2 by virtue of their ability to reduce the function of the receptor. The effects of negative allosteric modulators tested at mGluR2 using the [^35S]GTPγS binding assay method described below and which is suitable for the identification of such compounds, and more particularly the compounds according to Formula (I), are shown in Table 7.
1) [^35S]GTPγS Binding Assay
The [^35S]GTPγS binding assay is a functional membrane-based assay used to study G-protein coupled receptor (GPCR) function whereby incorporation of a non-hydrolysable form of GTP, [^35S]GTPγS (guanosine 5′-triphosphate, labelled with […] ^35S), is measured. The G-protein a subunit catalyzes the exchange of guanosine 5′-diphosphate (GDP) by guanosine triphosphate (GTP) and on activation of the GPCR by an agonist, [^35S]GTPγS, becomes incorporated and cannot be cleaved to continue the exchange cycle (Harper (1998) Current Protocols in Pharmacology 2.6.1-10, John Wiley & Sons, Inc.). […] Here we describe the use of the [^35S]GTPγS binding assay using membranes from cells transfected with the human mGlu2 receptor and adapted from Schaffhauser et al. (Molecular Pharmacology, 2003, […]) for the detection of the negative allosteric modulation (NAM) properties of the compounds of this invention.
CHO-cells were cultured to pre-confluence and stimulated with 5 mM butyrate for 24 h. Cells were then collected by scraping in PBS and cell suspension was centrifuged (10 min at 4000 RPM in benchtop centrifuge). Supernatant was discarded and pellet gently resuspended in 50 mM Tris-HCl, pH 7.4 by mixing with an Ultra Turrax homogenizer. The suspension was centrifuged at 12,400 RPM (Sorvall F14S-6x250Y) for 10 minutes and the supernatant discarded. The pellet was homogenized in 5 mM Tris-HCl, pH 7.4 using an Ultra Turrax homogenizer and centrifuged again (13,000 RPM, 20 min, 4° C.). The final pellet was resuspended in 50 mM Tris-HCl, pH 7.4 and stored at −80° C. in appropriate aliquots before use. Protein concentration was determined by the Bradford method (Bio-Rad, USA) with bovine serum albumin as standard.
[^35S]GTPγS Binding Assay
Measurement of mGluR2 negative allosteric modulatory activity of test compounds was performed as follows. Test compounds and glutamate were diluted in assay buffer containing 10 mM HEPES acid, 10 mM HEPES salt, pH 7.4, 100 mM NaCl, 3 mM MgCl2 and 10 μM GDP. Human mGlu2 receptor-containing membranes were thawed on ice and diluted in assay buffer supplemented with 18 μg/ml saponin. Membranes were pre-incubated with compound together with a predefined (˜EC80) concentration of glutamate (60 μM) for 30 min at 30° C. After addition of [^35S]GTPγS (f.c. 0.1 nM), assay mixtures were shaken briefly and further incubated to allow [^35S]GTPγS incorporation on activation (30 minutes, 30° C.). Final assay mixtures contained 7 μg of membrane protein in 10 mM HEPES acid, 10 mM HEPES salt, pH 7.4, 100 mM NaCl, 3 mM MgCl2, 10 μM GDP and 10 μg/ml saponin. Total reaction volume was 200 μl. Reactions were terminated by rapid filtration through Unifilter-96 GF/B plates (Perkin Elmer, Massachusetts, USA) using a 96-well filtermate universal harvester. Filters were washed 6 times with ice-cold 10 mM NaH2PO4/10 mM Na2HPO4, pH 7.4. Filters were then air-dried, and 30 μl of liquid scintillation cocktail (Microscint-O) was added to each well. Membrane-bound radioactivity was counted in a Topcount.
The concentration-response curves of representative compounds of the present invention were generated using the Lexis software interface (developed at J&J). […]

rats = experiment: Reversal of the effect of the mGluR2 PAM JNJ-42153605-induced inhibition of scopolamine-induced hyperlocomotion; format: in vivo; conditions: Rattus norvegicus, PO
Experimental: 2) Reversal of the Effect of the mGluR2 PAM JNJ-42153605-induced Inhibition of Scopolamine-induced Hyperlocomotion Apparatus
Motor activity was measured in microprocessor-based motor activity arenas (closed gray PVC cylinders with a height of 39 cm and a diameter of 31 cm). Each arena was placed on an infrared LED (8×8 LEDs) lit box (white PVC squared box; 40×40 cm^2; height 12.5 cm. An infrared-sensitive tube camera and a white light source were mounted to the ceiling above the observation chamber to track the animal. The total distance traveled (cm) was recorded and analyzed using the Noldus Ethovision XT Video Tracking System (Version 7.0.418; Noldus, Wageningen, The Netherlands). The intensity of the light within the activity cages (measured in the centre at the level of the floor) ranged between 4 and 8 LUX.
The rats were pretreated with test compound or vehicle at 60 min before the start of the activity recordings and placed into individual cages. The rats were challenged with JNJ-42153605 (3-(cyclopropylmethyl)-7-(4-phenylpiperidin-1-yl)-8-(trifluoromethyl)-[1,2,4]triazolo[4,3-a]pyridine; WO2010/130424; Cid et al. J. Med. Chem. 2012, 55, 8770-8789) (20 mg/kg, i.v.) 30 min before the start of the activity recording combined with scopolamine (0.16 mg/kg, i.v.) just before the start of the activity measurements. Immediately after the injection of scopolamine, the rats were placed into the activity monitors and total distance traveled over the first 30 min was measured.
Solvent-pretreated Control Rats.
Animals receiving the combination of JNJ-42153605 and scopolamine (n=433) almost always traveled a distance of less than 1500 cm (<1500 cm) (only 2.5% of the control rats traveled a distance of more than 1500 cm (>1500 cm)). On the other hand, animals challenged with scopolamine alone (n=215) always traveled a total distance of more than 1500 cm (>1500 cm) and almost always (in 95.8% of the rats) a distance of more than 4400 cm (>4400 cm). […] For reversal of the inhibitory effect of JNJ-42153605 on the scopolamine-induced hyperlocomotion, the following all-or-none criteria were adopted: (1) reversal: total distance>1500 cm.

T1 sequence (Q14416 19-872): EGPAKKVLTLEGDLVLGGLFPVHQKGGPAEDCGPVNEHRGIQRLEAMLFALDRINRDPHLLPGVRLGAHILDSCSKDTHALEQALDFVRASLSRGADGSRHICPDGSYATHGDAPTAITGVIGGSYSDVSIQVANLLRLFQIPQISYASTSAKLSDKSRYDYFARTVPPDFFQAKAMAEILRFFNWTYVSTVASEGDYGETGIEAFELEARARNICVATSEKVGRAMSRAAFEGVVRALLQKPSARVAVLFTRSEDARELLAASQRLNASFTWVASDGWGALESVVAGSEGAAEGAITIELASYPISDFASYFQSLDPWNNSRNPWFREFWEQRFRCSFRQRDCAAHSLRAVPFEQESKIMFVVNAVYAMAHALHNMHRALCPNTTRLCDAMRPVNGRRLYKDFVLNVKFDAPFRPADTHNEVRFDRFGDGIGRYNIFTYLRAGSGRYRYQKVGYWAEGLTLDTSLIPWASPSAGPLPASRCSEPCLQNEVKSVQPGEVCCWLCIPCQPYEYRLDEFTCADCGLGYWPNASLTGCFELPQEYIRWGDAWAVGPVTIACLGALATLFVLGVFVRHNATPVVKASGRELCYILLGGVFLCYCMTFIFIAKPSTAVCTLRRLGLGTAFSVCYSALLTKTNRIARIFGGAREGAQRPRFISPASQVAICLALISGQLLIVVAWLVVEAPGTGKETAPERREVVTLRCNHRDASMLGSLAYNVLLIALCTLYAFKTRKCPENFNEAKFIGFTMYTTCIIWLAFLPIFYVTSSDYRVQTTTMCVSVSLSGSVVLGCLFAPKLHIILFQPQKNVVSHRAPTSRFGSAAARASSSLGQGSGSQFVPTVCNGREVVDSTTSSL

- Emax (human mGlu2 receptor; maximal % inhibition relative to the control glutamate response (EC80 glutamate), read-out: GTPγS-hmGluR2 anGT Emax): 106%
- IC50 (human mGlu2 receptor; membranes from CHO cells transfected with human mGlu2 receptor, glutamate 60 μM (~EC80), read-out: GTPγS-hmGluR2 anGT pIC50 (converted)): 3.47 nM
- melting point: 188.27 °C
Compound: Cc1ncc(-c2cnn3c2C(=O)N(c2ccc(C(F)(F)F)c(Cl)c2)C[C@@H]3C)[nH]1 [Compound 27]
- ED50 (rats; criterion for reversal: total distance >1500 cm, read-out: ED50 SCOP JNJ-42153605): > 2.5 mg/kg
- ED50 (rats; more sensitive criterion for reversal: total distance >1300 cm, read-out: ED50 SCOP JNJ-42153605, more sensitive criterion): 1.25 mg/kg
